Among the data in ChEMBL document CHEMBL3044584, “4-Sulfenyl-2-carbamoyl-4-isoxazolin-3-ones: biological isostere to 4-chloro-2-carbamoyl-4-isoxazolin-3-ones” (Chem Pharm Bull (Tokyo), 2000) are inhibition and inhibition of growth values, retold here.

Molecules are shown by their SMILES.

Data set [1] can be described thus: Phytotoxicity against Oryza sativa (rice) assessed as growth inhibition at 25 g/a after 3 weeks in greenhouse conditions. The note with it: in vivo, read-out: GI. In kind it is organism-based.
Data set [2] concerns Eleocharis kuroguwai. Put plainly: Pre-emergent herbicidal activity against Eleocharis kuroguwai assessed as growth inhibition at 25 g/a after 3 weeks in greenhouse conditions. The data set is classed as functional. To be noted: pre-emergence, 504 h, read-out: GI.
For data set [3], the system named is Cyperus serotinus. Put plainly: Pre-emergent herbicidal activity against Cyperus serotinus assessed as growth inhibition at 25 g/a after 3 weeks in greenhouse conditions. The note with it: pre-emergence, 504 h, read-out: GI. The data set is classed as functional.
The subject of data set [4] is Eleocharis acicularis. Briefly: Pre-emergent herbicidal activity against Eleocharis acicularis assessed as growth inhibition at 25 g/a after 3 weeks in greenhouse conditions. The data set is classed as functional. To be noted: pre-emergence, 504 h, read-out: GI.
In data set [5] the test system is Schoenoplectiella juncoides. Briefly: Pre-emergent herbicidal activity against Schoenoplectiella juncoides assessed as growth inhibition at 25 g/a after 3 weeks in greenhouse conditions. The data set is classed as functional. The note with it: pre-emergence, 504 h, read-out: GI.
The test system of data set [6] is Echinochloa oryzicola. Briefly: Pre-emergent herbicidal activity against Echinochloa oryzicola assessed as growth inhibition at 25 g/a after 3 weeks in greenhouse conditions. The data set is classed as functional. To be noted: pre-emergence, 504 h, read-out: GI.
For data set [7], the system named is Lindernia procumbens. Briefly: Pre-emergent herbicidal activity against Lindernia procumbens assessed as growth inhibition at 25 g/a after 3 weeks in greenhouse conditions. The note with it: pre-emergence, 504 h, read-out: GI. In kind it is functional.
The nature of data set [8]: Phytotoxicity against Oryza sativa (rice) assessed as growth inhibition at 10 g/a after 3 weeks in greenhouse conditions. In kind it is organism-based. To be noted: in vivo, read-out: GI.
Data set [9] has as its system Eleocharis kuroguwai. Briefly: Pre-emergent herbicidal activity against Eleocharis kuroguwai assessed as growth inhibition at 10 g/a after 3 weeks in greenhouse conditions. The data set is classed as functional. To be noted: pre-emergence, 504 h, read-out: GI.
Data set [10] concerns Cyperus serotinus. Put plainly: Pre-emergent herbicidal activity against Cyperus serotinus assessed as growth inhibition at 10 g/a after 3 weeks in greenhouse conditions. To be noted: pre-emergence, 504 h, read-out: GI. In kind it is functional.
The subject of data set [11] is Eleocharis acicularis. Put plainly: Pre-emergent herbicidal activity against Eleocharis acicularis assessed as growth inhibition at 10 g/a after 3 weeks in greenhouse conditions. The data set is classed as functional. The note with it: pre-emergence, 504 h, read-out: GI.
The subject of data set [12] is Schoenoplectiella juncoides. Briefly: Pre-emergent herbicidal activity against Schoenoplectiella juncoides assessed as growth inhibition at 10 g/a after 3 weeks in greenhouse conditions. In kind it is functional. The note with it: pre-emergence, 504 h, read-out: GI.
In data set [13] the test system is Lindernia procumbens. Briefly: Pre-emergent herbicidal activity against Lindernia procumbens assessed as growth inhibition at 10 g/a after 3 weeks in greenhouse conditions. To be noted: pre-emergence, 504 h, read-out: GI. In kind it is functional.
Data set [14] relates to Echinochloa oryzicola. Put plainly: Pre-emergent herbicidal activity against Echinochloa oryzicola assessed as growth inhibition at 10 g/a after 3 weeks in greenhouse conditions. The data set is classed as functional. To be noted: pre-emergence, 504 h, read-out: GI.

Take `CCSc1c(C)on(C(=O)N(c2ccc(F)cc2)C(C)C)c1=O`: in [1], the inhibition at 504 h was 51%. Besides, the inhibition of growth at 2500 g/ha in data set [2], in data set [3], in data set [4], in data set [5], in data set [6] and in [7] was greater than 91% in each case.
In the case of `CCSc1c(C)on(C(=O)N(c2ccc(C)cc2)C(C)C)c1=O`, in [8], the inhibition at 504 h was less than 10%. Moreover, the inhibition of growth at 1000 g/ha was greater than 91% in data set [9]; greater than 91% in [10]; 71% in data set [11]; greater than 91% in data set [12]; 31% in data set [13]; greater than 91% in [14].
Regarding `CCSc1c(C)on(C(=O)N(c2ccc(Cl)cc2Cl)C(C)C)c1=O`, the inhibition at 504 h in data set [8] was less than 10%. The inhibition of growth at 1000 g/ha in data set [9] was greater than 91%; in data set [10], greater than 91%; in [11] it was 71%; in data set [12] it was greater than 91%; in data set [13], 71%; in data set [14], greater than 91%.
`CCSc1c(C)on(C(=O)N(c2ccc(C#N)cc2)C(C)C)c1=O`: the inhibition at 504 h in data set [8] worked out at 51%. The inhibition of growth at 1000 g/ha is greater than 91% in data set [9]; greater than 91% in [10]; 71% in data set [11]; greater than 91% in data set [12]; 71% in [13]; greater than 91% in [14].
Take `CCSc1c(C)on(C(=O)N(c2cccc([N+](=O)[O-])c2)C(C)C)c1=O`: the inhibition at 504 h in data set [8] was determined as 11%. The inhibition of growth at 1000 g/ha was greater than 91% in data set [9]; greater than 91% in data set [10]; 71% in [11]; greater than 91% in [12]; 71% in data set [13]; greater than 91% in data set [14].
For the compound `CCSc1c(C)on(C(=O)N(c2cccc(C(F)(F)F)c2)C(C)C)c1=O`, the inhibition at 504 h in [8] was less than 10%. Besides, the inhibition of growth at 1000 g/ha in data set [9] is greater than 91%; in data set [10], greater than 91%; in data set [11], 31%; in [12], 71%; in data set [13], 51%; in data set [14] it was greater than 91%.
`CCCSc1c(C)on(C(=O)N(c2ccc(F)cc2F)C(C)C)c1=O`: the inhibition at 504 h in [8] was found to be 11%. The inhibition of growth at 1000 g/ha in [9], in [10], in data set [11], in data set [12], in data set [13] and in [14] was greater than 91% each time.
In the case of `Cc1on(C(=O)N(c2ccc(Cl)cc2)C(C)C)c(=O)c1SC(C)C`, the inhibition at 504 h in [8] was less than 10%; in data set [1] it was 31%. Moreover, the inhibition of growth at 1000 g/ha is greater than 91% in data set [9]; greater than 91% in data set [10]; 51% in data set [11]; greater than 91% in data set [12]; 51% in [13]; greater than 91% in [14]. Also, the inhibition of growth at 2500 g/ha is greater than 91% in [2]; greater than 91% in [3]; 71% in data set [4]; greater than 91% in [5]; greater than 91% in data set [6]; greater than 91% in [7].
For the compound `CCc1on(C(=O)N(c2ccc(Cl)cc2)C(C)C)c(=O)c1SC(C)C`, the inhibition at 504 h in [1] is less than 10%. Further, the inhibition of growth at 2500 g/ha in [2] was greater than 91%; in [3] it was greater than 91%; in data set [4] it was 51%; in data set [5], greater than 91%; in data set [6], greater than 91%; in [7], 51%.
For the compound `Cc1on(C(=O)N(c2ccc(Cl)cc2)C(C)C)c(=O)c1SC(F)F`, the inhibition at 504 h in data set [8] turned out to be 11%. Also, the inhibition of growth at 1000 g/ha in data set [9] was greater than 91%; in data set [10] it was greater than 91%; in [11] it was greater than 91%; in data set [12], greater than 91%; in data set [13], 51%; in data set [14] it was greater than 91%.
Take `COCCSc1c(C)on(C(=O)N(c2ccc(Cl)cc2)C(C)C)c1=O`: the inhibition at 504 h is less than 10% in data set [8] and 11% in data set [1]. Also, the inhibition of growth at 1000 g/ha in data set [9] was greater than 91%; in [10], greater than 91%; in data set [11], 51%; in [12] it was greater than 91%; in [13], 31%; in [14], greater than 91%. In addition, the inhibition of growth at 2500 g/ha was greater than 91% in data set [2]; greater than 91% in data set [3]; 71% in [4]; greater than 91% in [5]; greater than 91% in data set [6]; 51% in data set [7].
As to `C#CCSc1c(C)on(C(=O)N(c2ccc(Cl)cc2)C(C)C)c1=O`, the inhibition at 504 h was less than 10% in data set [8] and 31% in [1]. The inhibition of growth at 1000 g/ha in [9] was greater than 91%; in data set [10], greater than 91%; in data set [11], 51%; in [12] it was greater than 91%; in data set [13] it was 51%; in [14], greater than 91%. For the same compound, the inhibition of growth at 2500 g/ha in data set [2] was greater than 91%; in data set [3] it was greater than 91%; in data set [4], 51%; in data set [5] it was greater than 91%; in data set [6] it was greater than 91%; in [7], 71%.
Consider `CCSc1c(C)on(C(=O)N(CC)c2ccc(Cl)cc2)c1=O`, for which, in [8], the inhibition at 504 h stood at 31%. The inhibition of growth at 1000 g/ha in [9] is greater than 91%; in data set [10] it was greater than 91%; in [11], 71%; in [12], greater than 91%; in data set [13] it was 71%; in data set [14] it was greater than 91%.
In the case of `CCCN(C(=O)n1oc(C)c(SCC)c1=O)c1ccc(Cl)cc1`, the inhibition at 504 h in data set [8] was determined as 11%. Also, the inhibition of growth at 1000 g/ha in [9] is greater than 91%; in [10] it was greater than 91%; in [11], 71%; in data set [12], greater than 91%; in data set [13], greater than 91%; in data set [14], greater than 91%.
Consider `CCSc1c(C)on(C(=O)N(C)c2ccc(Cl)cc2)c1=O`, for which, in data set [1], the inhibition at 504 h was determined as 11%. Further, the inhibition of growth at 2500 g/ha was greater than 91% in data set [2]; greater than 91% in [3]; 71% in [4]; 71% in data set [5]; greater than 91% in data set [6]; 71% in data set [7].
